Assay results taken from PubChem BioAssay (NCI).
Where “and” joins values, the source holds several entries; their conditions need not be identical. Identical values can stand only once.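 96-well plates; 48 h exposure; 5 concentrations. Endpoints by linear interpolation between flanking doses. Not reached: highest tested concentration assigned. The concentration for 50% growth inhibition is given as GI50. Definition used: TGI = concentration required for complete inhibition of growth.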

How the values were obtained:
Assay in all cases: inhibition of tumour cell growth, NCI panel, 48 h
[1] = tested on: DMS 273 small cell lung
[2] = tested on: SNB-78 CNS
[3] = tested on: KM12 colon
[4] = tested on: OVCAR-8 ovarian
[5] = tested on: HCT-116 colon
[6] = tested on: OVCAR-4 ovarian
[7] = tested on: OVCAR-5 ovarian
[8] = tested on: XF 498 CNS
[9] = tested on: HOP-62 NSCLC
[10] = tested on: NCI/ADR-RES ovarian
[11] = tested on: SR leukemia
[12] = tested on: COLO 205 colon
[13] = tested on: U251 CNS
[14] = tested on: UACC-257 melanoma
[15] = tested on: HCT-15 colon
[16] = tested on: A549 NSCLC
[17] = tested on: NCI-H522 lung
[18] = tested on: MDA-MB-231 breast
[19] = tested on: RXF 393 renal
[20] = tested on: TK-10 renal
[21] = tested on: MOLT-4 leukemia
[22] = tested on: OVCAR-3 ovarian
[23] = tested on: CAKI-1 renal
[24] = tested on: SF-295 CNS
[25] = tested on: NCI-H460 lung
[26] = tested on: SNB-19 CNS
[27] = tested on: SK-MEL-5 melanoma
[28] = tested on: SK-MEL-28 melanoma
[29] = tested on: HCC-2998 colon
[30] = tested on: K-562 leukemia
[31] = tested on: MDA-N
[32] = tested on: A498 renal
[33] = tested on: NCI-H226 lung
[34] = tested on: SK-OV-3 ovarian

With `CCOc1ccc(NCc2cc(OC)c(OC)c(OC)c2)cc1` the TGI [1] was over 100 µM, the TGI [2] was over 100 µM and the TGI [3] was > 81.5 µM and 46.4 µM. For the same molecule, the GI50 [4] was 5.75 µM and 2.31 µM, the TGI [4] was > 80.7 µM and 62.6 µM and the TGI [5] was 48.2 µM and 46 µM. For the same molecule, the TGI [6] was over 100 µM, the GI50 [7] was 10.5 µM and 4.43 µM and the TGI [7] was over 93.8 µM. The GI50 [8] was 9.37 µM and 3 µM, the TGI [8] was > 95.6 µM and 62 µM and the TGI [9] was > 36.6 µM and 24.7 µM. For the same molecule, the GI50 [10] was 0.569 µM, the TGI [10] was over 100 µM and the TGI [11] was over 100 µM. For the same molecule, the TGI [12] was 2.46 µM and 5.04 µM, the TGI [13] was 19.3 µM and 22.3 µM and the TGI [14] was over 100 µM. The TGI [15] was 45.9 µM and 32.7 µM, the TGI [16] was over 100 µM and the TGI [17] was 1.78 µM and 2.55 µM. It also gave a TGI [18] of over 100 µM, a GI50 [19] of 2.24 µM and a GI50 [20] of over 100 µM. For the same molecule, the TGI [20] was over 100 µM, the TGI [21] was over 100 µM and the TGI [22] was 1.65 µM and 2.22 µM. For the same molecule, the GI50 [23] was 2.01 µM and 7.61 µM, the TGI [23] was over 100 µM and the TGI [24] was 3.44 µM. The TGI [25] was > 100 µM and 58 µM, the GI50 [26] was 4.9 µM and the TGI [26] was over 100 µM. The TGI [27] was 52.9 µM and > 60.6 µM, the TGI [28] was over 100 µM and the TGI [29] was 98.7 µM and > 50 µM. The TGI [30] was over 63.1 µM, the GI50 [31] was 0.565 µM and 0.446 µM and the TGI [31] was over 100 µM. For the same molecule, the GI50 [32] was 1.05 µM and 4.61 µM, the TGI [32] was > 48 µM and 59.5 µM and the TGI [33] was over 100 µM. The TGI [34] was 22.8 µM and 24.8 µM.
